This series relates to rodent carcinogenicity bioassays, tumor incidence. As to the kind of experiment: CCRIS carcinogenicity studies. Particulars: Dose: 0, Dose: 0. In a few lines:
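Archive of carcinogenicity, mutagenicity, tumor promotion and tumor inhibition results drawn from journals, NCI reports and other sources, expert-reviewed; covers 1985-2011 and is no longer updated.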

Calls of active or inactive are those of the source. How the calls were made is not given here.

For `CCOCCc1c(-c2ccccc2)nc(N)n2ncnc12`, the carcinogen call (Species: RAT, Strain/Sex: STRAIN-CD/FEMALE, Route: ORAL, 50, 150, 450 MG/KG/D IN DIET FOR 97 WK (STUDY DURATION: 105 WK), 50, 150, 450 MG/KG/D IN DIET FOR 97 WK (STUDY DURATION: 105 WK), Tumor Site: Type of Lesion: LIVER: ADENOMA OR CARCINOMA, MAMMARY GLAND: ADENOMA OR CARCINOMA, THYROID GLAND: ADENOMA, Tumor Site: Type of Lesion: LIVER: ADENOMA OR CARCINOMA, MAMMARY GLAND: ADENOMA OR CARCINOMA, THYROID GLAND: ADENOMA) was “active; positive” and the carcinogen call (Species: RAT, Strain/Sex: STRAIN-CD/MALE, Route: ORAL, 50, 150, 450 MG/KG/D IN DIET FOR 97 WK (STUDY DURATION: 105 WK), 50, 150, 450 MG/KG/D IN DIET FOR 97 WK (STUDY DURATION: 105 WK), Tumor Site: Type of Lesion: LIVER: ADENOMA OR CARCINOMA, THYROID GLAND: ADENOMA OR CARCINOMA) is “active; positive”.
Take `CN[C@@H](C)[C@H](O)c1ccccc1`: the carcinogen call (Species: MOUSE, Strain/Sex: B6C3F1/FEMALE, Route: ORAL, 125, 250 PPM IN DIET FOR 103 WK, 125, 250 PPM IN DIET FOR 103 WK) was “inactive; negative”; the carcinogen call (Species: MOUSE, Strain/Sex: B6C3F1/MALE, Route: ORAL, 125, 250 PPM IN DIET FOR 103 WK, 125, 250 PPM IN DIET FOR 103 WK) is “inactive; negative”; the carcinogen call (Species: RAT, Strain/Sex: F344/FEMALE, Route: ORAL, 125, 250 PPM IN DIET FOR 103 WK, 125, 250 PPM IN DIET FOR 103 WK) is “inactive; negative”; the carcinogen call (Species: RAT, Strain/Sex: F344/MALE, Route: ORAL, 125, 250 PPM IN DIET FOR 103 WK, 125, 250 PPM IN DIET FOR 103 WK) was “inactive; negative”.
Turning to `O[C@H]1C=CC=C[C@@H]1O`, the carcinogen call was “inactive; negative” (Species: MOUSE, Strain/Sex: SWISS/FEMALE, Route: INTRAPERITONEAL, 50 UMOL ADMINISTERED AS 3 UNEQUAL DOSES (1/7, 2/7, AND 4/7 OF THE TOTAL DOSE) OVER A 2-WK PERIOD (STUDY DURATION: 28) and “inactive; negative” (Species: MOUSE, Strain/Sex: SWISS/MALE, Route: INTRAPERITONEAL, 50 UMOL ADMINISTERED AS 3 UNEQUAL DOSES (1/7, 2/7, AND 4/7 OF THE TOTAL DOSE) OVER A 2-WK PERIOD (STUDY DURATION: 28).
Consider `Cc1ccc(N)cc1Cl`, for which the carcinogen call was “inactive; negative” (Species: MOUSE, Strain/Sex: B6C3F1/FEMALE, Route: ORAL, 300, 600 PPM IN DIET, 300, 600 PPM IN DIET); “inactive; negative” (Species: MOUSE, Strain/Sex: B6C3F1/MALE, Route: ORAL, 600, 1200 PPM IN DIET, 600, 1200 PPM IN DIET); “inactive; negative” (Species: RAT, Strain/Sex: F344/FEMALE, Route: ORAL, 1635, 3269 PPM IN DIET, TWA, 1635, 3269 PPM IN DIET, TWA); “inactive; negative” (Species: RAT, Strain/Sex: F344/MALE, Route: ORAL, 1635, 3269 PPM IN DIET, TWA, 1635, 3269 PPM IN DIET, TWA).
As for `OCC1CO1` (stereo unspecified), the carcinogen call is, setting by setting: (Species: MOUSE, Strain/Sex: B6C3F1/FEMALE, Route: GAVAGE, 25, 50 MG/KG IN DISTILLED WATER 5 D/WK FOR 103 WK (STUDY DURATION: 105 WK), 25, 50 MG/KG IN DISTILLED WATER 5 D/WK FOR 103 WK (STUDY DURATION: 105 WK), Tumor Site: Type of Lesion: SUBCUTANEOUS TISSUE: SARCOMA, SARCOMA OR FIBROSARCOMA, MAMMARY GLAND: ADENOCARCINOMA, ADENOMA OR FIBROADENOMA OR ADENOCA) “active; positive”; (Species: MOUSE, Strain/Sex: B6C3F1/MALE, Route: GAVAGE, 25, 50 MG/KG IN DISTILLED WATER 5 D/WK FOR 103 WK (STUDY DURATION: 105 WK), 25, 50 MG/KG IN DISTILLED WATER 5 D/WK FOR 103 WK (STUDY DURATION: 105 WK), Tumor Site: Type of Lesion: SKIN: SQUAMOUS CELL PAPILLOMA, LUNG: ALVEOLAR/BRONCHIOLAR ADENOMA OR CARCINOMA, LIVER: HEPATOCELLULAR ADENOMA, HEPATOCEL, Tumor Site: Type of Lesion: SKIN: SQUAMOUS CELL PAPILLOMA, LUNG: ALVEOLAR/BRONCHIOLAR ADENOMA OR CARCINOMA, LIVER: HEPATOCELLULAR ADENOMA, HEPATOCEL) “active; positive”; (Species: RAT, Strain/Sex: F344/FEMALE, Route: GAVAGE, 37.5, 75 MG/KG IN DISTILLED WATER 5 D/WK FOR 103 WK (STUDY DURATION: 104 WK), 37.5, 75 MG/KG IN DISTILLED WATER 5 D/WK FOR 103 WK (STUDY DURATION: 104 WK), Tumor Site: Type of Lesion: HEMATOPOIETIC SYSTEM: MONONUCLEAR CELL LEUKEMIA, ORAL CAVITY (MOUTH OR TONGUE): SQUAMOUS CELL PAPILLOMA OR CARCINOMA, FO, Tumor Site: Type of Lesion: HEMATOPOIETIC SYSTEM: MONONUCLEAR CELL LEUKEMIA, ORAL CAVITY (MOUTH OR TONGUE): SQUAMOUS CELL PAPILLOMA OR CARCINOMA, FO) “active; positive”; (Species: RAT, Strain/Sex: F344/MALE, Route: GAVAGE, 37.5, 75 MG/KG IN DISTILLED WATER 5 D/WK FOR 103 WK (STUDY DURATION: 104 WK), 37.5, 75 MG/KG IN DISTILLED WATER 5 D/WK FOR 103 WK (STUDY DURATION: 104 WK), Tumor Site: Type of Lesion: SKIN: SEBACEOUS GLAND ADENOMA OR BASAL CELL TUMOR OR SEBACEOUS GLAND ADENOCARCINOMA, FORESTOMACH: SQUAMOUS CELL PAPILLOM) “active; positive”.
Regarding `O=CN(O)c1ccc(/C=C/c2ccccc2)cc1`, the carcinogen call is, setting by setting: (Species: RAT, Strain/Sex: STRAIN-CD/FEMALE, Route: INTRAPERITONEAL, 10 UMOL/KG BW 2/WK FOR 6 WK (STUDY DURATION: 62 WK), Tumor Site: Type of Lesion: LIVER: NEOPLASTIC NODULE, MAMMARY GLAND: TUMOR) “active; positive”; (Species: RAT, Strain/Sex: STRAIN-CD/MALE, Route: INTRAPERITONEAL, 10 UMOL/KG BW 2/WK FOR 6 WK (STUDY DURATION: 62 WK), Tumor Site: Type of Lesion: TESTICLE: MESOTHELIOMA, PANCREAS(ACINUS): ADENOMA) “active; positive”.
For `CC(=O)Nc1c(I)c(C(=O)N[C@@H](C=O)[C@@H](O)[C@H](O)[C@H](O)CO)c(I)c(N(C)C(C)=O)c1I`, the carcinogen call (Species: MOUSE, Strain/Sex: ICR/FEMALE, Route: INTRABRONCHIAL, 75 µL ONCE ADMINISTERED TO WEANLING MICE (STUDY DURATION: LIFETIME), Tumor Site: Type of Lesion: LUNG: TUMOR) is “active; positive”.
For `Nc1ccc(O)c([N+](=O)[O-])c1`, the carcinogen call runs as follows: (Species: MOUSE, Strain/Sex: B6C3F1/FEMALE, Route: ORAL, 1250, 2500 PPM IN DIET FOR 103 WK (STUDY DURATION: 105 WK), 1250, 2500 PPM IN DIET FOR 103 WK (STUDY DURATION: 105 WK)) “inactive; negative”; (Species: MOUSE, Strain/Sex: B6C3F1/MALE, Route: ORAL, 1250, 2500 PPM IN DIET FOR 103 WK (STUDY DURATION: 105 WK), 1250, 2500 PPM IN DIET FOR 103 WK (STUDY DURATION: 105 WK)) “inactive; negative”; (Species: RAT, Strain/Sex: F344/FEMALE, Route: ORAL, 1250, 2500 PPM IN DIET FOR 103 WK (STUDY DURATION: 105 WK), 1250, 2500 PPM IN DIET FOR 103 WK (STUDY DURATION: 105 WK), Tumor Site: Type of Lesion: BLADDER: CARCINOMA) “equivocal”; (Species: RAT, Strain/Sex: F344/MALE, Route: ORAL, 1250, 2500 PPM IN DIET FOR 103 WK (STUDY DURATION: 105 WK), 1250, 2500 PPM IN DIET FOR 103 WK (STUDY DURATION: 105 WK), Tumor Site: Type of Lesion: URINARY BLADDER: TRANSITIONAL CELL CARCINOMA) “active; positive”.
With `Cc1cc2c(c3ccc4ccccc4c13)CCC2=O`, the carcinogen call (Species: MOUSE, Strain/Sex: TO/MALE, FEMALE, Route: DERMAL, 50 UG (10 µL OF A 0.5% W/V TOLUENE SOLUTION) 2/WK FOR 70 WK (STUDY DURATION: 70 WK), Tumor Site: Type of Lesion: SKIN: CARCINOMA) is “active; positive”.
On to `Fc1cccc2ncccc12`, for which the carcinogen call by setting is: (Species: MOUSE, Strain/Sex: CD-1/FEMALE, Route: INTRAPERITONEAL, 1.75 UMOL/MOUSE (TOTAL DOSE) ADMINISTERED DURING DAYS 1, 8, AND 15 OF LIFE (STUDY DURATION: 52 WK)) “inactive; negative”; (Species: MOUSE, Strain/Sex: CD-1/MALE, Route: INTRAPERITONEAL, 1.75 UMOL/MOUSE (TOTAL DOSE) ADMINISTERED DURING DAYS 1, 8, AND 15 OF LIFE (STUDY DURATION: 52 WK), Tumor Site: Type of Lesion: LIVER: CARCINOMA) “active; positive”.

The record behind these values is PubChem BioAssay AID1259411 (Chemical Carcinogenesis Research Information System (CCRIS), 2018).
